Some test systems named below: TK-10 renal; UACC-257 melanoma; HL-60(TB) leukemia; MDA-MB-231 breast; NCI-H23 lung; HOP-92 NSCLC; ACHN renal; NCI-H226 lung; A549 NSCLC; SK-MEL-5 melanoma.
Holding throughout (experiment): NCI-60 cell line screen, 48 h

Several values for one entry are separate records, joined by “and”; a condition that tells them apart may be missing. Equal entries are not always repeated.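 Cultured in 96-well plates, cells were exposed to test compound for 48 hours across five concentrations. The concentration for 50% growth inhibition is given as GI50. The concentration for full growth arrest is given as TGI.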

As for `CCN1C(=O)N(CC)C2C1NC(=S)N2/N=C/C=C/c1ccccc1OC` (configuration not stated), the GI50 with TK-10 renal is 30.9 µM; in the assay with UACC-257 melanoma it was > 100 µM; with HL-60(TB) leukemia it was 0.0264 µM; with MDA-MB-231 breast, 0.0413 µM; in the assay on NCI-H23 lung, 0.0412 µM; in the assay with HOP-92 NSCLC it was 0.0269 µM. The GI50 was 0.0401 µM in the assay on ACHN renal, 0.0458 µM in the assay with NCI-H226 lung, 0.0403 µM with A549 NSCLC and 0.0305 µM with SK-MEL-5 melanoma. In addition, the TGI in the assay with TK-10 renal was > 100 µM; with UACC-257 melanoma it was > 100 µM; with HL-60(TB) leukemia it was 0.0722 µM; with NCI-H23 lung, > 100 µM; in the assay on HOP-92 NSCLC it was 27.1 µM; with ACHN renal it was > 100 µM. Also, the TGI was > 100 µM in the assay with NCI-H226 lung, > 100 µM in the assay on A549 NSCLC and 0.158 µM in the assay on SK-MEL-5 melanoma.
On to `O=C(O)c1ccc(C(=O)O)c(C(=O)O)c1.[NH-]C1CCCCC1[NH-].[Pt+2]`, for which the GI50 is 25.6 µM with TK-10 renal; 15.4 µM with UACC-257 melanoma; 0.735 µM and 4.08 µM with HL-60(TB) leukemia; 16.7 µM in the assay on MDA-MB-231 breast; 4.87 µM in the assay on NCI-H23 lung; 14.8 µM in the assay with HOP-92 NSCLC. Also, the GI50 was 1.96 µM with ACHN renal, 2.02 µM with NCI-H226 lung, 1.87 µM with A549 NSCLC and 1.43 µM with SK-MEL-5 melanoma. Further, the TGI was 85.8 µM in the assay with TK-10 renal; 61.6 µM in the assay with UACC-257 melanoma; 18.8 µM in the assay with HL-60(TB) leukemia; > 73.6 µM in the assay with MDA-MB-231 breast; 38.4 µM in the assay on NCI-H23 lung; 53.9 µM with HOP-92 NSCLC. For the same molecule, the TGI in the assay on ACHN renal came out at 44.1 µM; in the assay with NCI-H226 lung it was 32.2 µM; in the assay on A549 NSCLC, 39 µM; with SK-MEL-5 melanoma, 14.5 µM.
Turning to `O=C1/C(=C\c2ccccc2)CN(C(=O)c2ccccc2)C/C1=C\c1ccccc1`, the GI50 in the assay on TK-10 renal was 2.83 µM; with UACC-257 melanoma, 2 µM; with HL-60(TB) leukemia it was 4.29 µM; with MDA-MB-231 breast it was 2.2 µM; in the assay with NCI-H23 lung it was 3.62 µM; in the assay on HOP-92 NSCLC it was 3.28 µM. For the same molecule, the GI50 was 1.73 µM in the assay with ACHN renal, 19.3 µM in the assay on NCI-H226 lung, 3.63 µM in the assay with A549 NSCLC and 1.64 µM with SK-MEL-5 melanoma. The TGI in the assay with TK-10 renal came out at 9.06 µM; in the assay with UACC-257 melanoma, 5.16 µM; in the assay on HL-60(TB) leukemia, 52.7 µM; in the assay on MDA-MB-231 breast, 5.02 µM; in the assay on NCI-H23 lung it was 12.4 µM; in the assay with HOP-92 NSCLC, 21 µM. In addition, the TGI in the assay with ACHN renal is 3.33 µM; in the assay on NCI-H226 lung it was > 100 µM; with A549 NSCLC it was 16.3 µM; with SK-MEL-5 melanoma, 3.06 µM.
As for `C/C(=N/NC(=S)N1CC2CCC(CC2)C1)c1cnccn1`, the TGI in the assay on TK-10 renal was 16.7 µM; in the assay on UACC-257 melanoma, 14.3 µM; in the assay with HL-60(TB) leukemia it was 3.18 µM; in the assay with MDA-MB-231 breast, 16.8 µM; with NCI-H23 lung, 13.7 µM; in the assay on HOP-92 NSCLC, 12.7 µM. The TGI in the assay with ACHN renal was 10.1 µM; in the assay with NCI-H226 lung, 1.33 µM; with A549 NSCLC, 10.4 µM; in the assay with SK-MEL-5 melanoma it was 2.32 µM.
Turning to `COc1ccc(C2CC(c3ccc4ccccc4c3)=NN2c2nc(O)c(C3=c4cc(OC)ccc4=NC3=O)s2)cc1` (configuration not stated), the GI50 with TK-10 renal was 0.0905 µM; in the assay with UACC-257 melanoma it was 0.718 µM; in the assay on HL-60(TB) leukemia it was > 57.9 µM; in the assay with MDA-MB-231 breast it was 0.0408 µM; in the assay with NCI-H23 lung it was 0.0348 µM; in the assay on HOP-92 NSCLC it was 0.131 µM. The GI50 with ACHN renal is 0.0678 µM; with NCI-H226 lung, 0.0581 µM; with A549 NSCLC it was 0.0612 µM; in the assay on SK-MEL-5 melanoma, 0.0899 µM. Moreover, the TGI in the assay on TK-10 renal was 0.371 µM; in the assay with UACC-257 melanoma, 6.14 µM; in the assay on HL-60(TB) leukemia it was > 100 µM; with MDA-MB-231 breast, 0.201 µM; in the assay with NCI-H23 lung, 0.191 µM; in the assay on HOP-92 NSCLC, 0.358 µM. The TGI in the assay on ACHN renal stood at 0.419 µM; with NCI-H226 lung, 0.248 µM; in the assay on A549 NSCLC, 0.223 µM; in the assay on SK-MEL-5 melanoma, 0.243 µM.
On to `O=C(/C=C/c1cccc(S(=O)(=O)Nc2ccccc2)c1)NO`, for which the GI50 with TK-10 renal was 0.215 µM and 0.024 µM; in the assay with UACC-257 melanoma, 0.553 µM and 0.25 µM; in the assay with MDA-MB-231 breast, 0.577 µM and 0.216 µM; in the assay with NCI-H23 lung, 0.707 µM and 0.112 µM; in the assay with HOP-92 NSCLC, 0.27 µM and 0.074 µM; in the assay on ACHN renal, 0.429 µM and 0.422 µM. The GI50 in the assay on NCI-H226 lung was 2.34 µM and 0.694 µM; in the assay on A549 NSCLC, 0.459 µM and 0.0805 µM. Further, the TGI in the assay on TK-10 renal was 3.19 µM and 1.73 µM; in the assay on UACC-257 melanoma, 10.8 µM and > 100 µM; in the assay with HL-60(TB) leukemia, 29.8 µM; with MDA-MB-231 breast, 19.9 µM and 5.63 µM; in the assay on NCI-H23 lung, 7.47 µM and 2.69 µM; in the assay on HOP-92 NSCLC, 2.19 µM and 1.21 µM. For the same molecule, the TGI in the assay on ACHN renal was 3.22 µM and 8.44 µM; with NCI-H226 lung, 11.5 µM and 5.11 µM; with A549 NSCLC it was 17.8 µM and 44.4 µM; with SK-MEL-5 melanoma it was 1.03 µM and 0.192 µM.

These data come from PubChem BioAssay (NCI).
